# Data as given in US20160310454A1, “LIVER X RECEPTOR AGONISTS IN THE TREATMENT OF EMPHYSEMA” (priority 2013, published 2016).
# “Also recorded” adds a separate entry of the source.
# What was measured:
# [1] = target: T1, farnesoid X receptor (FXR (NR4H4)) (Homo sapiens, UniProt Q96RI1); details: cited from earlier work
# T1 sequence (Q96RI1 1-486): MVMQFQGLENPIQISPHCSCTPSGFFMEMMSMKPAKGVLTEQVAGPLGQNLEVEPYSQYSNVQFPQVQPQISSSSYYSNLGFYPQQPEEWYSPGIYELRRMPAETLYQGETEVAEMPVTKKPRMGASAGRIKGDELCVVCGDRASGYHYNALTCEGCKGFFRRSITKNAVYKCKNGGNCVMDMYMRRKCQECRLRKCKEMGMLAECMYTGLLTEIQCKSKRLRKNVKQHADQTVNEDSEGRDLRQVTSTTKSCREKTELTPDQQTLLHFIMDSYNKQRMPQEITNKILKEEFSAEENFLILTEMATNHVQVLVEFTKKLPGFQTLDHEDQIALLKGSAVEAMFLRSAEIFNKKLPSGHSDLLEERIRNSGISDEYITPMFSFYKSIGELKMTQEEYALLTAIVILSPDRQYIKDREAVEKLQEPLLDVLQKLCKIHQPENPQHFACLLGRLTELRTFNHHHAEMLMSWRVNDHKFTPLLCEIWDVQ
# [2] = tested on: macrophage ABCA1-deficient mice exposed to cigarette smoke for 10 days; assay: Acute 10 day cigarette smoke exposure of macrophage ABCA1-deficient mice with treatment; assay type: in vivo, mouse; details: 25 mg/kg IP, 10 days smoke exposure
# Experimental: In order to determine if the mechanism identified in vitro contributed to changes in smoke induced lung inflammation in vivo, smoke studies were performed in vivo. […] Through investigation of the smoke-induced regulation of ABCA1, the present disclosure identifies unique pathways that can be targeted to prevent smoking-related emphysema and the progression of lung destruction.
# [3] = tested on: mouse macrophages (bone marrow derived, ABCA1 fl/fl WT) treated with 5% CSE; assay: Mouse macrophages treated with 5% CSE with or without LXR agonist (RT-PCR, Western blot, zymography); assay type: cell-based
# Experimental: To prepare cigarette (CSE), the smoke from one cigarette (1.1 mg of nicotine, 15 mg of tar) was passed through 25 mls of phosphate buffered saline (PBS) (Mercer et al., 2004). The pH of the extracted solution was adjusted to 7.4 and then filtered (Mercer et al., 2004). CSE was added to the media at concentrations up to 5% (vol/vol) (Mercer et al., 2004).
# In these experiments both mouse peritoneal and mouse bone marrow derived macrophages (BMdM) were utilized. Mouse peritoneal macrophages were isolated from peritoneal cavities of 3% thioglycolate injected mice on the 5th day from injection. To compare expression of genes in vitro and in vivo peritoneal macrophages were isolated from mice exposed to room air and cigarette smoke. For in vitro analysis cells were seeded on culture plates for 24 h and then treated with CSE. For in vivo analysis cells were collected from peritoneal cavity and mRNA was directly isolated. Mouse BMdMs were obtained from the following mice: ABCA1 fl/fl in a C57/BL6 background. Briefly, mice were first sacrificed by CO2 asphyxiation followed by cervical dislocation. After sacrificing the mouse the legs were amputated and the excess muscle tissue was removed so as to completely expose the femur and tibia, which were cleaned carefully. These samples were left in sterile PBS for the duration of the procedure. The cavity bones were then flushed with 10 ml of PBS using 26G needle. The obtained cells were then counted (usually 100-150 million cells per mouse) and centrifuged for 5 min at 2600 rpm. Hematopoietic cells can be separated by plastic adhesion; therefore the cells were incubated in petri dishes containing DMEM culture media and supplemented with 10% FBS and 1% antibiotics). Non-adherent progenitor cells were then collected after 2 hours of incubation in culture media and then seeded at a concentration of 4 million cells/ml in fresh culture media, supplemented with L-cell conditioned media containing macrophage colony stimulating factor (M-CSF) at a concentration of 20%. Approximately after 7-10 days of plating the cells become fully differentiated into macrophages and were ready for subsequent experiments. After treatment the culture supernatants, proteins, and total RNA were collected for analysis. […]
# Total RNA was extracted from specimens of lung tissue 0.3 cm^3 in size with the use of the RNeasy kit (Qiagen, Germantown, Md.) (Goldklang et al., 2012). The RNA was then further processed to obtain cDNA, which was used for Real Time (RT) PCR analysis. TaqMan gene expression assays (Applied Biosystems, Carlsbad, Calif.) were performed to assess gene-transcript levels with the use of an ABI Prism 7900HT Sequence Detection System (Applera, Foster City, Calif.) (Goldklang et al., 2012). The following primers were used to check the respective gene expression: ABCA1 (Hs01059118_m1), ABCG1 (Hs00245154_m1), MMP-9 (Mm00442991_m1), IL-1β (Mm00434227_g1), TNF-α (Mm00443260_g1) and GAPDH (4352932E) from TaqMan Gene Expression Assays, Applied Biosystems, CA. β-actin was used as a control since it is a housekeeping gene.
# The lungs of mice (-10 mg) were homogenized in 1 ml of Radioimmunoprecipitation assay (RIPA) buffer, and centrifuged at 14,000 g for 10 min. The protein concentration of each sample was measured using a Bradford reagent. The required amount of each sample was then used for western blot analysis, so that the concentration was equal for all samples. Proteins were first separated on the basis of molecular weight via sodium dodecyl sulphate polyacrylamide gel electrophoresis (SDS-PAGE). The same gel was then transferred onto a nitro cellulose membrane with the help of electric current (or electroblotting) that transfers the protein from polyacrylamide gel to the membrane. This membrane was then incubated in the solution containing primary antibodies, specific for the proteins of interest, ABCA1 and ABCG1, followed by the use of a secondary antibody that allowed the detection of protein by chemiluminescent. […]
smiles,measurement,setting,value
"O=S(=O)(c1ccccc1)N(CC(F)(F)F)c1ccc(C(O)(C(F)(F)F)C(F)(F)F)cc1 [T0901317, N-(2,2,2-trifluoroethyl)-N-[4-[2,2,2-trifluoro-1-hydroxy-1-(trifluoromethyl)ethyl]phenyl]-benzenesulfonamide]",activation of FXR compared with chenodeoxycholic acid,[1],"more potently than a natural bile acid FXR ligand, chenodeoxycholic acid"
same,potency as activator of LXR versus FXR,[1],much more potent activator of LXR than FXR
same,pulmonary inflammation (total cell counts in BAL),[2],did not resolve
same,Expression of ABCA1 and ABCG1 (mRNA and protein),"[3]; 5% CSE, LXR agonist 3 μM",maintained at baseline levels
same,cigarette smoke induced mRNA expression of TLR4/Myd88,"[3]; 5% CSE, LXR agonist 3 μM",inhibited
same,cigarette smoke induced phosphorylation of JNK and ERK,"[3]; 5% CSE, LXR agonist 3 μM, Western blot",inhibited
same,Expression of ABCA1 and ABCG1 (mRNA and protein),"[3]; 5% CSE, LXR agonist 3 μM, listed as LXR agonist",re-established
same,CSE induced upregulation of IL-1β and TNFα and downregulation of IL-10 (mRNA),"[3]; ABCA1 WT macrophages, 5% CSE, LXR agonist 3 μM",reversed back to baseline
same,mRNA and activity of MMP-9,"[3]; ABCA1 WT macrophages, 5% CSE, LXR agonist 3 μM, gelatin zymography",blocked; also recorded: reduced
same,cigarette smoke-induced pro-inflammatory cytokines and MMP expression and activity,[3]; mouse macrophages treated with CSE,blocked
same,"MMP-9 activity (zymography) and expression, MMP-13 expression and TNFα expression","[3]; smoke-induced, macrophages",decrease
